Consider seven molecules from US6552060B1, “Asymmetric disulfides and methods of using same” (Prolx Pharmaceuticals, Inc., priority 1997, dated 2003).

In series [1] the target is T1, Human placental thioredoxin reductase (Homo sapiens, UniProt Q16881).
T1 sequence (Q16881 1-499 isoform Q16881-5): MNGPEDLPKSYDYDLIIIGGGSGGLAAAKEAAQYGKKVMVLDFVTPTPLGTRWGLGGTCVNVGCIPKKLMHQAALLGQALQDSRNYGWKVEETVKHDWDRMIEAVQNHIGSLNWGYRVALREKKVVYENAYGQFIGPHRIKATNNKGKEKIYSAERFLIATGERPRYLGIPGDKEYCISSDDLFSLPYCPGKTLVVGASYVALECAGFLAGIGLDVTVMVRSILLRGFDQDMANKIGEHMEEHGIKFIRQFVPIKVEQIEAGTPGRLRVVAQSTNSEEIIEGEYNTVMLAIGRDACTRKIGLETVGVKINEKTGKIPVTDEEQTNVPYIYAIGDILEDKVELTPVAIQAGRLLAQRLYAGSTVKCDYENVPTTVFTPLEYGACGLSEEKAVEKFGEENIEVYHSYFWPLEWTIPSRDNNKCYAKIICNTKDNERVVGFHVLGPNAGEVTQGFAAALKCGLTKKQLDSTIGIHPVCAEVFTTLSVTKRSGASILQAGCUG
In words: NADPH oxidation by thioredoxin reductase with the disulfide as substrate, or with thioredoxin and insulin as final electron acceptor and the disulfide as inhibitor. It is filed as biochemical. The following applies: for Type: behaviour towards thioredoxin reductase: substrate, inhibitor or non-reactive. How it is done: The thioredoxin was stored at −20° C. with 5 mM dithiothreitol which was removed before use with a desalting column (PD10, Pharmacia, Uppsala, Sweden).
Asymmetrical 2-imidazolyl disulfides which were used as a basis for further development and identified below in Table 1. In Table I, NADPH oxidation by thioredoxin reductase was measured spectrophotometrically as described with either the disulfide as the electron acceptor (substrate) or with thioredoxin and insulin as the final electron acceptor and the disulfide as inhibitors. The reactions were initiated by the addition of NADPH. Km and Ki values were calculated from Lineweaver-Burk plots of the data.
The compounds of Table 1 were synthesized by a method described previously and recrystallized prior to use. Stock solutions of the disulfides were prepared at 10 mM in ethanol and diluted in aqueous media just prior to use. N-ethylmaleimide (NEM), diamide, and DTT were obtained from Sigma Chemical Co. (St. Louis, Mo.). All other chemicals used were of reagent grade. […]

Series [2] concerns MCF-7 human breast cancer cells. The series is described as follows: Thioredoxin and serum dependent growth of MCF-7 cells. It is filed as cell-based. The following applies: 48 hr. On the procedure:
MCF-7 human breast cancer cells were obtained from the American Tissue Type Collection (Rockville, Md.). Cultures were maintained in Dulbecco's Modified Eagles' medium (DMEM) containing 10% fetal bovine serum (fbs) at 37° C. and 6% CO2, and passaged at 75% confluence using 0.025% trypsin. The effect of the disulfides on cell proliferation was measured as previously described and incorporated herein by reference. Briefly, 10^5 cells were plated in a 35 mm culture dish in the above medium and, after attachment for 24 hr, their growth was arrested by changing to DMEM with 0.5% fbs for 48 hr. The medium was then replaced with DMEM containing 10% fbs or 1 μM thioredoxin, with or without the disulfides. The cell number was measured 2 days later following detachment with 0.025% trypsin using a hemocytometer.
The effects of the disulfides on the growth of human MCF-7 breast cancer cells is shown graphically in FIG. 1. […] The cells were growth arrested in medium with 0.5% serum for 48 hr at which time there were 0.2×10^6 cells. DMEM with 1 mM thioredoxin (open symbols) or 10% serum (filled symbols) was added and the increase in cell number over a 48 hr period was measured in the presence of various concentrations of the disulfides. Values are means±SEM. n=6.

The next series concerns the target T2, thioredoxin (Homo sapiens, UniProt P10599).
T2 construct: made in house; host or cells: E. coli
T2 sequence (P10599 1-105): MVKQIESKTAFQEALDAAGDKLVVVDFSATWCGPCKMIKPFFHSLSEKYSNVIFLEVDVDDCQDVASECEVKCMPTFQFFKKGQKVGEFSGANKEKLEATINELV
The series is described as follows: Direct reaction between thioredoxin and disulfides, release of 2-mercaptoimidazole at 252 nm. It is filed as biochemical. Particulars: for initial rate for reaction between thioredoxin and disulfide: thioredoxin 2 μM, disulfide 200 μM, pH 7.4, room temperature. How it is done: The effects of the assymetric disulfides of Table I on the reduction of thioredoxin and C73S by thioredoxin reductase was measured spectrophotometrically by following the reduction of NADPH at 339 nm. […] In some studies the disulfides at 3.5 μM were preincubated for up to 24 hr at room temperature in air with 0.7 μM thioredoxin or C73S in 100 μM HEPES buffer, pH 7.6, and 5 mM EDTA, before measuring the reduction of the thioredoxin or C73S by thioredoxin reductase with 1 mg/ml bovine insulin as the final electron acceptor. The ability of the disulfides to act as substrates for glutathione reductase was measured by following the reduction of NADPH using an incubation mixture containing 0.15 μg/ml glutathione reductase, 140 μM NADPH, 100 mM HEPES buffer, pH 7.6, 5 mM EDTA and the disulfides at 500 μM. The ability of the disulfides to act as inhibitors of glutathione reductase was measured using oxidized glutathione, 50 μM, as the final electron acceptor. In both cases the reaction was initiated by the addition of NADPH. Thioredoxin or C32S/C35S, 2 μM, in 0.1 M sodium phosphate buffer, pH 7.4, was reacted with the disulfides at a concentration of 200 μM at room temperature. This direct reaction between thioredoxin and the disulfides was followed spectrophotometrically as the increase in absorbance at 252 nm due to release of 2-mercaptoimidazole. Initial reaction rates were measured in triplicate.
Due to the fact that the disulfides inhibited thioredoxin-dependent cell growth at concentrations below those required to inhibit thioredoxin reductase, a direct effect of the disulfides on thioredoxin was looked for. The initial reaction between the disulfides and thioredoxin was measured spectrophotometrically (FIGS. 2A and 2B). […] This is the order of reactivity which be predicted from the steric and electronic nature of the disulfides thioalkylating groups.

In series [3] the test system is MCF-7 breast cancer cells in scid mice. The series is described as follows: Activity against MCF-7 breast cancer cells in scid mice. It is filed as in vivo. The following applies: for T/C %: tumor volume treated versus control at day 28; for tumor inhibition: MCF-7 tumor system. The source says:
This is shown below in Table II.

Another series has as its system HL60 cells. The series is described as follows: Induction of apoptosis in HL60 cells. It is filed as cell-based, human. Particulars: within 8 h of exposure, same concentration.
The next series has as its system human primary tumors. The series is described as follows: Growth of human primary tumors in soft agarose. It is filed as cell-based.
A further series can be described thus: in vitro. Particulars: mouse.
The subject of series [4] is thioredoxin transfected MCF-7 cells. The series is described as follows: Apoptosis in MCF-7 cells transfected with human thioredoxin cDNA. Particulars: 30 μM, apoptosis measured 48 h later.
Series [5] relates to EMT6 mouse mammary tumor cells. The following applies: 48 h.
The target in the next series is T3, TR/Trx (Homo sapiens, UniProt Q16881).
T3 sequence (Q16881 1-499 isoform Q16881-5): T1 sequence (Q16881 1-499 isoform Q16881-5)
The series is described as follows: Thioredoxin dependent reduction of insulin by human thioredoxin reductase and NADPH (IC50 TR/Trx, 96 well). It is filed as biochemical. The source says: When referring to the particular system being analyzed IC50 is typically followed by an abbreviation referring to that system (i.e., IC50 TR/Trx for the above described thioredoxin redox system which is comprised of thioredoxin reductase and thioredoxin).
A second plate was used for the assessment of biological activity or as a biological screen. Aliquots of disulfides dissolved in DMSO, were be transferred into 96 well plates. The assay to assess their ability to inhibit thioredoxin reductase measures the thioredoxin dependent reduction of insulin by human thioredoxin reductase and NADPH. The effects of the disulfides on the reduction of Trx by TR were measured spectrophotometrically by following the reduction of NADPH at 339 nm with insulin as the final electron acceptor in a buffered mixture of TR, Trx, NADPH and insulin.

Series [6] has as its system MCF-7 breast cancer cells. Particulars: read-out: EC50 for growth stimulation; cited from earlier work.
[7] abbreviates: MCF7, in the presence of 1 μM thioredoxin, read-out: IC50 thioredoxin dependent proliferation.
Where [8] appears, read: MCF7, with 10% fetal bovine serum, read-out: IC50 serum dependent growth.

Values joined by “and” are separate entries in the source; they are usually repeats but may differ in a detail not shown here. Equal entries are not always repeated. “Also recorded” adds a separate entry of the source. Where two headings read alike, the source gives them in different places. Marks after values point to notes of the source that are not given here. A value given as a limit tells only on which side of the number the result lay.

Consider `CCC(C)SSc1ncc[nH]1` (stereo not drawn) [IV-2, 1-methylpropyl 2-imidazolyl disulfide], for which the Type entry in [1] is “competitive inhibitors; also recorded: inhibitor”. Further, the IC50 worked out at 1.2 µM in series [2] (setting [7]) and 3.2 µM in [2] (setting [8]). Further, the “initial rate for reaction between thioredoxin and disulfide” value (“initial rate” below) at thioredoxin stood at 2.8e-07 M/s. Also, the T/C % is given as 56.7% in series [3] (5 mg/kg/day i.p. for 14 days), 45.9^c % in series [3] (10 mg/kg/day i.p. for 14 days) and 2.3^c % in series [3] (15 mg/kg/day i.p. for 14 days). Moreover, in series [3], the tumor inhibition came to 98%. Also, the “apoptosis of HL60 cells” value in the series with HL60 cells is on record as “stimulated to apoptose”. Besides, the “growth of human primary tumors in soft agarose” value with human primary tumors is on record as “inhibited”. The IC50 at 48 h in the series “in vitro” came out at 19 µM. Further, the “apoptosis induced in thioredoxin transfected cells” value in series [4] is listed as “became resistant to apoptosis”.

As for `CC(C)(C)SSc1ncc[nH]1` [IX-2, t-butyl 2-imidazolyl disulfide], the Type entry in series [1] was “non-reactive”. In addition, the “rate of thiol/disulfide exchange reaction with thioredoxin relative to III-2” value on thioredoxin is “three logs slower”. Besides, the “initial rate” value at thioredoxin (unit not given, in M/s) is 3.0×10^−9. Also, in the series on HL60 cells, the “apoptosis of HL60 cells” value is “does not cause apoptosis”.

`CC(C)SSCc1ccccc1` [Compound E-19] had an IC50 in [5] of 25 µM. The same molecule gave an IC50 at 48 h in “in vitro” of 42 µM.

As for `CCCCSSc1ncc[nH]1` [III-2, n-butyl 2-imidazolyl disulfide], the Type result in series [1] is “substrate”. Also, the Michaelis-Menten constant (Km) in series [1] (disulfide as substrate for reduction by thioredoxin reductase, Lineweaver-Burk) is 43 µM and 43.1 µM. In addition, the IC50 is 0.2 µM in series [2] (setting [7]); 35 µM in series [2] (setting [8]); 117 µM on TR/Trx (Table 4, read-out: Disulfide inhibition of TR/Trx (IC50 TR/Trx) (converted)). Also, on thioredoxin, the “initial rate” value was 7.3e-07 M/s. The values for the Toxicity dead/injected in [3] (6 mg/kg/day i.p. for 14 days), in series [3] (12 mg/kg/day i.p. for 14 days) and in [3] (18 mg/kg/day i.p. for 14 days) were 0/8, 0/8 and 1/8, respectively. In addition, the T/C % in [3] (6 mg/kg/day i.p. for 14 days) was 48.9^c %; in series [3] (12 mg/kg/day i.p. for 14 days) it was 56.6^c %; in series [3] (18 mg/kg/day i.p. for 14 days), 100.2%. The “apoptosis of HL60 cells” value with HL60 cells is reported as “stimulated to apoptose”. In “in vitro”, this molecule came in with an IC50 at 48 h of 12 µM.

In the case of `c1ccc(CSSc2ncc[nH]2)cc1` [DLK-36, benzyl 2-imidazolyl disulfide], in series [1], the Type entry is listed as “competitive inhibitors; also recorded: inhibitor”. In series [1] (competitive inhibitors of the reduction of thioredoxin by thioredoxin reductase), this molecule gave a Ki of 31 µM. Moreover, on thioredoxin, the “initial rate” value came to 1.3e-06 M/s. In addition, the results for the Toxicity dead/injected in series [3] (25 mg/kg/day i.p. for 14 days) and in series [3] (40 mg/kg/day i.p. for 14 days) were 1/8 and 0/6, respectively. Moreover, the T/C % is reported as 100.7% in series [3] (25 mg/kg/day i.p. for 14 days) and 23.7^c % in series [3] (40 mg/kg/day i.p. for 14 days). This molecule also registered a tumor inhibition in series [3] of 65%. The IC50 at 48 h in the series “in vitro” was 22 µM.

Turning to `CCC(C)SSc1ncnc2[nH]cnc12` (stereo not drawn) [Compound F-7], the IC50 is 95.7 µM at TR/Trx (Table 3, read-out: IC50 TR/Trx (converted)) and above 180 µM in series [5]. In the series “in vitro”, this molecule showed an IC50 at 48 h above 180 µM.

B1: thioredoxin: low molecular weight redox protein; human recombinant thioredoxin stimulates proliferation of cancer cells (protein, UniProt P10599 2-105, looked up)
Thioredoxin: VKQIESKTAFQEALDAAGDKLVVVDFSATWCGPCKMIKPFFHSLSEKYSNVIFLEVDVDDCQDVASECEVKCMPTFQFFKKGQKVGEFSGANKEKLEATINELV
For the molecule B1, the EC50 in [6] is 0.35 µM.

The Km is the substrate concentration at which the rate is half of its maximum. Broadly, the Ki is a measure of affinity in units of concentration, obtained from inhibition or displacement. Lower therefore signals higher affinity. One may read the EC50 as the midpoint of the concentration-response curve.
